The text below walks through data of patent publication US20130029923A1, “Materials and Methods for Prevention and Treatment of Viral Infections” (priority 2009, published 2013).

The subject of this test is influenza virus H1N1 (A/Victoria/07159200/07), oseltamivir-resistant strain. The class given is cell-based, human influenza virus.

Each structure is given as a SMILES string.

Take `C[C@@H]1O[C@@H](OC[C@H]2O[C@@H](OCCc3ccc(O)c(O)c3)[C@H](O)[C@@H](O)[C@@H]2OC(=O)/C=C/c2ccc(O)c(O)c2)[C@H](O)[C@H](O)[C@H]1O` [Compound A1, forsythoside A]: the “suppression of virus replication (TCID50) compared with DMSO-treated cells” value is given as approximately 3 fold.
